According to ChEMBL document CHEMBL4334471, “Discovery of 1,8-disubstituted-[1,2,3]triazolo[4,5-c]quinoline derivatives as a new class of Hippo signaling pathway inhibitors” (Bioorg Med Chem Lett, 2019):

Legend:
[1] = target: Insulin-like growth factor 1 receptor (Homo sapiens) (UniProt P08069); test: Inhibition of human IGF1R activated (959 to end residues) assessed as residual activity at 10 uM using KKKSPGEYVNIEFG as substrate after 40 mins by [gamma-33ATP] radiometric assay relative to control
[2] = target: Serine/threonine-protein kinase 35 (Homo sapiens) (UniProt Q8TDR2); test: Inhibition of recombinant full length human CLIK1 assessed as residual activity at 10 uM using RSRSRSRSRSRS as substrate incubated 40 mins in presence of [gamma-33ATP] by scintillation counting based radiometry assay relative to control
Chain of Serine/threonine-protein kinase 35 (Homo sapiens) (Q8TDR2 whole entry): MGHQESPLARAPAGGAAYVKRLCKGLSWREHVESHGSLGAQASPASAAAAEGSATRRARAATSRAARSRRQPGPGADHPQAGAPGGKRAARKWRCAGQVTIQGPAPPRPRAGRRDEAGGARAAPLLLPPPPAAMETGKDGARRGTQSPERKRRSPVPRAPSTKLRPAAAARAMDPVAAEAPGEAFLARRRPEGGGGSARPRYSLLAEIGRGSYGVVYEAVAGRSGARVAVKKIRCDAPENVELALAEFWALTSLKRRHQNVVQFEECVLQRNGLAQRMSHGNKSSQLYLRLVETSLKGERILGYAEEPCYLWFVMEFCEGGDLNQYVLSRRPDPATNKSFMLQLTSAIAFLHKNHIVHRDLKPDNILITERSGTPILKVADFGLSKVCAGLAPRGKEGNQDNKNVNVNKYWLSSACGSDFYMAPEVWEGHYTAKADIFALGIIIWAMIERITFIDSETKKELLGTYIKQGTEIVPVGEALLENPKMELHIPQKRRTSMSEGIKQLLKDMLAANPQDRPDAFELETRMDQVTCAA

[3] = target: Serine/threonine-protein kinase 32C (Homo sapiens) (UniProt Q86UX6); test: Inhibition of recombinant human full length STK32C assessed as residual activity at 10 uM using casein as substrate incubated for 40 mins in presence of [gamma33P]ATP by scintillation counting based radiometry assay relative to control
Chain of Serine/threonine-protein kinase 32C (Homo sapiens) (Q86UX6 whole entry): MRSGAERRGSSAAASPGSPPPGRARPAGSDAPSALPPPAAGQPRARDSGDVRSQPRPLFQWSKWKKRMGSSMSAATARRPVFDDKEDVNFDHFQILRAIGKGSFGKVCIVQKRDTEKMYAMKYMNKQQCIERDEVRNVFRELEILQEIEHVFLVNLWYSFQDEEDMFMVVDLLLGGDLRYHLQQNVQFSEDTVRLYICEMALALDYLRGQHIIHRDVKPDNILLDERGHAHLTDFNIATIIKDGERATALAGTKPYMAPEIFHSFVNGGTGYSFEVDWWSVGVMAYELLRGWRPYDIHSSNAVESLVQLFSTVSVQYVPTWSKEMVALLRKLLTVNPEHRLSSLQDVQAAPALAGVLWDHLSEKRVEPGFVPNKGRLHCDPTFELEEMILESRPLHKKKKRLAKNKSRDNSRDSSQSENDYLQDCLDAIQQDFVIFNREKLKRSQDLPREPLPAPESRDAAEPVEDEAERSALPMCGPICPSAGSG

[4] = target: Cyclin-dependent kinase 2/cyclin E1 (Homo sapiens) (UniProt P24864+P24941); test: Inhibition of recombinant full length human CDK2/CyclinE assessed as residual activity at 10 uM using Histone H1 as substrate incubated for 40 mins in presence of [gamma-33ATP] by scintillation counting based radiometry assay relative to control; format: protein-complex assay
[5] = system: Tyrosine-protein kinase ABL1 (Homo sapiens), P00519 [Q252H]; test: Inhibition of human ABL1 Q252H mutant (27 to end residues) assessed as residual activity at 10 uM using EAIYAAPFAKKK as substrate incubated for 40 mins in presence of [gamma-33ATP] by scintillation counting based radiometry assay relative to control
[6] = target: Tyrosine-protein kinase Lck (Homo sapiens) (UniProt P06239); test: Inhibition of recombinant full length human LCK activated assessed as residual activity at 10 uM using KVEKIGEGTYGVVYK as substrate after 40 mins in presence of [gamma-33ATP] by scintillation counting based radiometry assay relative to control
Chain of Tyrosine-protein kinase Lck (Homo sapiens) (P06239 2-509 limits assumed): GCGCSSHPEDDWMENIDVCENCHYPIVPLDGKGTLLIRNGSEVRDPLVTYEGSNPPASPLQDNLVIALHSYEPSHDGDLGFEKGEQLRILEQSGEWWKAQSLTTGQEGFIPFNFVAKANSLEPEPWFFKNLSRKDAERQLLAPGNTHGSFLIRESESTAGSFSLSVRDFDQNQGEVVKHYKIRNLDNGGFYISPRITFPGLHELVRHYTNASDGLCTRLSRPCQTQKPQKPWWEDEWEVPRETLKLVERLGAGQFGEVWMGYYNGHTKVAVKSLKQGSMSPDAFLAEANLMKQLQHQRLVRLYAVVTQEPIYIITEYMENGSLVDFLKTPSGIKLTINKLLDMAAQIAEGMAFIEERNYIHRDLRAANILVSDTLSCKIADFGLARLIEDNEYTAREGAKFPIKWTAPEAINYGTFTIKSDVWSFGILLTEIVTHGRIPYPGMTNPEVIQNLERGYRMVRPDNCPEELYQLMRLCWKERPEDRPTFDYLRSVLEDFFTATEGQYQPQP

[7] = target: Inhibitor of nuclear factor kappa-B kinase subunit beta (Homo sapiens) (UniProt O14920); test: Inhibition of full length human IKKbeta assessed as residual activity at 10 uM using peptide as substrate after 40 mins by [gamma-33ATP] radiometric assay relative to control
[8] = target: Ribosomal protein S6 kinase alpha-2 (Homo sapiens) (UniProt Q15349); test: Inhibition of recombinant full length human Rsk3 assessed as residual activity at 10 uM using KKKNRTLSVA as substrate incubated for 40 mins in presence of [gamma33P]ATP by scintillation counting based radiometry assay relative to control
[9] = target: Serine/threonine-protein kinase TAO1 (Homo sapiens) (UniProt Q7L7X3); test: Inhibition of recombinant human TAO1 (1 to 327 residues) assessed as residual activity at 10 uM using myelin basic protein as substrate incubated for 40 mins in presence of [gamma33P]ATP by scintillation counting based radiometry assay relative to control
[10] = target: Dual specificity tyrosine-phosphorylation-regulated kinase 1A (Homo sapiens) (UniProt Q13627); test: Inhibition of recombinant human DYRK1A assessed as residual activity at 10 uM using RRRFRPASPLRGPP as substrate at 40 mins in presence of [gamma-33ATP] by scintillation counting based radiometry assay relative to control
[11] = system: Tyrosine-protein kinase ABL1 (Homo sapiens), P00519 [M351T]; test: Inhibition of human ABL1 M351T mutant (27 to end residues) assessed as residual activity at 10 uM using EAIYAAPFAKKK as substrate incubated for 40 mins in presence of [gamma-33ATP] by scintillation counting based radiometry assay relative to control
[12] = system: RAC-gamma serine/threonine-protein kinase (Homo sapiens), Q9Y243 [S472D]; test: Inhibition of recombinant human PKBgamma S472D mutant (117 to end residues) assessed as residual activity at 10 uM using GRPRTSSFAEGKK as substrate incubated for 40 mins in presence of [gamma33P]ATP by scintillation counting based radiometry assay relative to control
[13] = target: Aurora kinase C (Homo sapiens) (UniProt Q9UQB9); test: Inhibition of recombinant human Aurora C (35 to end residues) assessed as residual activity at 10 uM using AKRRRLSSLRA as substrate incubated for 40 mins in presence of [gamma-33ATP] by scintillation counting based radiometry assay relative to control
Chain of Aurora kinase C (Homo sapiens) (Q9UQB9 whole entry): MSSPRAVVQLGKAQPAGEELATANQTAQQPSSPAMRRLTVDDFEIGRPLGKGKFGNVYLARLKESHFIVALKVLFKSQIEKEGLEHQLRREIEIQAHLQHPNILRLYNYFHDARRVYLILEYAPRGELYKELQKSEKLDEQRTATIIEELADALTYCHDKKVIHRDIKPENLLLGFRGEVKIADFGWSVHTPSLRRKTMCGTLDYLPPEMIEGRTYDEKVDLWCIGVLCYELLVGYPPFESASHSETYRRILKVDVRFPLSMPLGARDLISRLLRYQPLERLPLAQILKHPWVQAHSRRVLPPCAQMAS

[14] = target: Tyrosine-protein kinase FRK (Homo sapiens) (UniProt P42685); test: Inhibition of recombinant human PTK5 (218 to end residues) assessed as residual activity at 10 uM using GGEEEEYFELVKKKK as substrate incubated for 40 mins in presence of [gamma33P]ATP by scintillation counting based radiometry assay relative to control
[15] = target: Serine/threonine-protein kinase pim-1 (Homo sapiens) (UniProt P11309); test: Inhibition of recombinant full length human Pim1 assessed as residual activity at 10 uM using KKRNRTLTV as substrate incubated for 40 mins in presence of [gamma33P]ATP by scintillation counting based radiometry assay relative to control
Chain of Serine/threonine-protein kinase pim-1 (Homo sapiens) (P11309 whole entry, looked up): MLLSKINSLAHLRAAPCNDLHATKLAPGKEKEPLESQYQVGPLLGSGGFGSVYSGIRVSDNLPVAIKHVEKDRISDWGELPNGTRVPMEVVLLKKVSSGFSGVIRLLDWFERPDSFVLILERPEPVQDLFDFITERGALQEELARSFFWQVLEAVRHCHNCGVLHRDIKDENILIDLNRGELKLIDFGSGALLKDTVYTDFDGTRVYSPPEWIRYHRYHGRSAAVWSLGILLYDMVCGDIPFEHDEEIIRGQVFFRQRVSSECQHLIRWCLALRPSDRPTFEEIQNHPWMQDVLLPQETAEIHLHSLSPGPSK

[16] = target: MAP/microtubule affinity-regulating kinase 4 (Homo sapiens) (UniProt Q96L34); test: Inhibition of recombinant full length human MARK4 assessed as residual activity at 10 uM using KKKVSRSGLYRSPSMPENLNRPR as substrate incubated for 40 mins in presence of [gamma-33ATP by scintillation counting based radiometry assay relative to control
Chain of MAP/microtubule affinity-regulating kinase 4 (Homo sapiens) (Q96L34 whole entry): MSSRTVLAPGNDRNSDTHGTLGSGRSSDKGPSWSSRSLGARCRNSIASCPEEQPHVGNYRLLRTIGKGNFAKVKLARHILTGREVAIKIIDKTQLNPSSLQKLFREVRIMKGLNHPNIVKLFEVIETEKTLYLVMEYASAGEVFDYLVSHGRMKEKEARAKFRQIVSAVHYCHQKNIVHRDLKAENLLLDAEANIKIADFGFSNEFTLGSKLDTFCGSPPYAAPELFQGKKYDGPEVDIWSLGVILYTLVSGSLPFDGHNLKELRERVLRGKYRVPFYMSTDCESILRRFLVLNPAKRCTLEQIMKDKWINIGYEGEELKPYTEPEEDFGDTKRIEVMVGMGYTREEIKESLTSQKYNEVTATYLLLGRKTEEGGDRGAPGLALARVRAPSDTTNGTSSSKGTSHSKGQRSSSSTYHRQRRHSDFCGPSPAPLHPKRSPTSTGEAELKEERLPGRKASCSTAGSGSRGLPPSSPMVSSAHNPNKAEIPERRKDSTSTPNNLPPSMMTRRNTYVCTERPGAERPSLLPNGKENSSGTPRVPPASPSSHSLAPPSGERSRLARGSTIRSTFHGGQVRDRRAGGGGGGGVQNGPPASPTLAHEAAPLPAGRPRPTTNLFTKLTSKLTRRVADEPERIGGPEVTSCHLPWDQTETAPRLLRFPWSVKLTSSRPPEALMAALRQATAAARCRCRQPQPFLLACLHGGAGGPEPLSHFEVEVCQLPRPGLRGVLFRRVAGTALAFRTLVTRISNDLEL

[17] = target: Receptor-type tyrosine-protein kinase FLT3 (Homo sapiens) (UniProt P36888); test: Inhibition of recombinant human FLT3 (564 to end residues) assessed as residual activity at 10 uM using EAIYAAPFAKKK as substrate at 40 mins in presence of [gamma-33ATP] by scintillation counting based radiometry assay relative to control
[18] = target: Mitogen-activated protein kinase kinase kinase 11 (Homo sapiens) (UniProt Q16584); test: Inhibition of recombinant human MLK3 assessed as residual activity at 10 uM using by scintillation counting based radiometry assay relative to control
[19] = system: Hepatocyte growth factor receptor (Homo sapiens), P08581 [D1228H]; test: Inhibition of recombinant human MET A1209G/V1290L/D1246H mutant (974 to end residues) assessed as residual activity at 10 uM using KKKGQEEEYVFIE as substrate incubated for 40 mins in presence of [gamma-33ATP by scintillation counting based radiometry assay relative to control
[20] = target: Ephrin type-B receptor 3 (Homo sapiens) (UniProt P54753); test: Inhibition of recombinant human EphB3 (599 to 920 residues) assessed as residual activity at 10 uM using poly(Glu, Tyr) 4:1 as substrate at 40 mins in presence of [gamma-33ATP] by scintillation counting based radiometry assay relative to control
Chain of Ephrin type-B receptor 3 (Homo sapiens) (P54753 whole entry, the tested form may be a part): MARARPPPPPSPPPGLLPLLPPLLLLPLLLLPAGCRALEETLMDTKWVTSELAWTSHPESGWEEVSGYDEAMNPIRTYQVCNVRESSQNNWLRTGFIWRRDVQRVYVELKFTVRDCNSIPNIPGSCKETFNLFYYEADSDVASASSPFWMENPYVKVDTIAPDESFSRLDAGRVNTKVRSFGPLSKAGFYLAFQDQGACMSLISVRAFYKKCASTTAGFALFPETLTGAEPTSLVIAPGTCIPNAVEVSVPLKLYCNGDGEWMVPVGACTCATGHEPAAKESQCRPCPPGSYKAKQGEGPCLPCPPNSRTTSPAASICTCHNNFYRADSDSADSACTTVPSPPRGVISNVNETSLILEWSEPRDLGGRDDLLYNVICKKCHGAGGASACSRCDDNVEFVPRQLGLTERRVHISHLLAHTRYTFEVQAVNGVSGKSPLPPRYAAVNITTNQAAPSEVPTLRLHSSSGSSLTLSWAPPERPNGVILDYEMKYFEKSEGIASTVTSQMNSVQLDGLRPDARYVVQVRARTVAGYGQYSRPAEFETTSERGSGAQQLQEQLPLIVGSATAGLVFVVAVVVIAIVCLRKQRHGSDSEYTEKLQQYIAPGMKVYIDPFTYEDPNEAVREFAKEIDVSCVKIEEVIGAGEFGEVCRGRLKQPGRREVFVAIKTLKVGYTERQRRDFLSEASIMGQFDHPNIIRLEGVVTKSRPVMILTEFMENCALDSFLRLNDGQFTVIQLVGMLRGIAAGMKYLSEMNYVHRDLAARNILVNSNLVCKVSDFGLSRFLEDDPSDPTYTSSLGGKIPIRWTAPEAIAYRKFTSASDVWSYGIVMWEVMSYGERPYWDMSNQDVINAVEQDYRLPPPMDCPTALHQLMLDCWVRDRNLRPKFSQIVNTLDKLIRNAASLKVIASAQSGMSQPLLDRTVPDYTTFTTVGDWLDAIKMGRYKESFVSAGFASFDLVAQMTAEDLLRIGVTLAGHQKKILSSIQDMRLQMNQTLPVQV

[21] = target: Ephrin type-B receptor 1 (Homo sapiens) (UniProt P54762); test: Inhibition of recombinant human EphB1 (564 to end residues) assessed as residual activity at 10 uM using KVEKIGEGTYGVVYK as substrate at 40 mins in presence of [gamma-33ATP] by scintillation counting based radiometry assay relative to control
Chain of Ephrin type-B receptor 1 (Homo sapiens) (P54762 whole entry): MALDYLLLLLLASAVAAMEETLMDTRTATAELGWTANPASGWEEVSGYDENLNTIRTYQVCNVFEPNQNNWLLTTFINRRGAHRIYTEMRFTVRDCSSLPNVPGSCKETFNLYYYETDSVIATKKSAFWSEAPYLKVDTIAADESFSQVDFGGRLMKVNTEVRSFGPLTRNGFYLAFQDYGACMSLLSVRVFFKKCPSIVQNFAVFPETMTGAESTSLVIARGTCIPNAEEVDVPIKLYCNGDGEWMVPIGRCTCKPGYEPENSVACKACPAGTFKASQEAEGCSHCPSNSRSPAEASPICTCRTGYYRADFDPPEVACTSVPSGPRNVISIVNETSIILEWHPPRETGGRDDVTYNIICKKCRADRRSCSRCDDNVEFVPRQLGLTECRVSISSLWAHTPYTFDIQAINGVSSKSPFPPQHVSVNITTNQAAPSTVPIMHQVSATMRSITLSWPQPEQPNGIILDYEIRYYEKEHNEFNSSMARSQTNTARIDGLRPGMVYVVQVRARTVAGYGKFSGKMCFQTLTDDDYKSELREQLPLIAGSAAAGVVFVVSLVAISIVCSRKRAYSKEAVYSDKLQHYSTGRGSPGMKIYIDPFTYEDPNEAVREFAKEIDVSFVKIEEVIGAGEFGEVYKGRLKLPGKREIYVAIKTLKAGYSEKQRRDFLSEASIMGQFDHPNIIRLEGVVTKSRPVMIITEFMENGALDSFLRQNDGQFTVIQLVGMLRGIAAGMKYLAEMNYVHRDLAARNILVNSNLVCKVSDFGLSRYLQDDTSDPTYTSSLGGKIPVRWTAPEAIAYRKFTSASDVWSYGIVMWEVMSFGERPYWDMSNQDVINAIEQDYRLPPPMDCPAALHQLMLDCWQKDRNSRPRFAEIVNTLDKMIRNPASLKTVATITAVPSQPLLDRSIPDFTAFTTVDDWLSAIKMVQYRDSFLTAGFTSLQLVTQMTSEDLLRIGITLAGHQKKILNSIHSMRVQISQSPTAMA

C[C@@H](c1ccccc1)n1nnc2cnc3ccc(-c4cnc5[nH]ccc5c4)cc3c21
Activity [1]: 79%
Activity [2]: 75%
Activity [3]: 91%
Activity [4]: 72%
Activity [5]: 1%
Activity [6]: 4%
Activity [7]: 96%
Activity [8]: 93%
Activity [9]: 18%
Activity [10]: 63%
Activity [11]: 3%
Activity [12]: 48%
Activity [13]: 68%
Activity [14]: 7%
Activity [15]: 68%
Activity [16]: 89%
Activity [17]: 28%
Activity [18]: 73%
Activity [19]: 72%
Activity [20]: 123%
Activity [21]: 152%
